Reference: ChEMBL document CHEMBL4414588, “Cinerols, Nitrogenous Meroterpenoids from the Marine Sponge Dysidea cinerea” (J Nat Prod, 2019)
pIC50: −log10 of the molar value. Active and inactive are the calls of the source. No cut-off for these calls is given here.

Tests used:
[1] = biological target: T1, Tyrosine-protein phosphatase non-receptor type 1 (Homo sapiens, UniProt P18031); assay: Inhibition of PTP1B (unknown origin) using pNPP as substrate incubated for 30 mins
T1 sequence (P18031 whole entry): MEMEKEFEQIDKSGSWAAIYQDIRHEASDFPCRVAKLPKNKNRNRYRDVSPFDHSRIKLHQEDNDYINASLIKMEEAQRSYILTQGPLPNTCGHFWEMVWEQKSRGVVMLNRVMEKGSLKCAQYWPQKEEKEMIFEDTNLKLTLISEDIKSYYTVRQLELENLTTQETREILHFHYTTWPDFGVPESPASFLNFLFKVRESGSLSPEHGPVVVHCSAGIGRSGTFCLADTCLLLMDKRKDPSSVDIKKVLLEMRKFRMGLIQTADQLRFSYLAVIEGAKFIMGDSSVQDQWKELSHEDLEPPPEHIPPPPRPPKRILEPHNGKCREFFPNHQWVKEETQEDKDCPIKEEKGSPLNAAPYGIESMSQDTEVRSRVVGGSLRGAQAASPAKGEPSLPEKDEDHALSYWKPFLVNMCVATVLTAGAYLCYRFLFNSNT

ATP-citrate synthase = biological target: T2, ATP-citrate synthase (Homo sapiens, UniProt P53396); assay: Inhibition of ACL (unknown origin)
T2 sequence (P53396 whole entry): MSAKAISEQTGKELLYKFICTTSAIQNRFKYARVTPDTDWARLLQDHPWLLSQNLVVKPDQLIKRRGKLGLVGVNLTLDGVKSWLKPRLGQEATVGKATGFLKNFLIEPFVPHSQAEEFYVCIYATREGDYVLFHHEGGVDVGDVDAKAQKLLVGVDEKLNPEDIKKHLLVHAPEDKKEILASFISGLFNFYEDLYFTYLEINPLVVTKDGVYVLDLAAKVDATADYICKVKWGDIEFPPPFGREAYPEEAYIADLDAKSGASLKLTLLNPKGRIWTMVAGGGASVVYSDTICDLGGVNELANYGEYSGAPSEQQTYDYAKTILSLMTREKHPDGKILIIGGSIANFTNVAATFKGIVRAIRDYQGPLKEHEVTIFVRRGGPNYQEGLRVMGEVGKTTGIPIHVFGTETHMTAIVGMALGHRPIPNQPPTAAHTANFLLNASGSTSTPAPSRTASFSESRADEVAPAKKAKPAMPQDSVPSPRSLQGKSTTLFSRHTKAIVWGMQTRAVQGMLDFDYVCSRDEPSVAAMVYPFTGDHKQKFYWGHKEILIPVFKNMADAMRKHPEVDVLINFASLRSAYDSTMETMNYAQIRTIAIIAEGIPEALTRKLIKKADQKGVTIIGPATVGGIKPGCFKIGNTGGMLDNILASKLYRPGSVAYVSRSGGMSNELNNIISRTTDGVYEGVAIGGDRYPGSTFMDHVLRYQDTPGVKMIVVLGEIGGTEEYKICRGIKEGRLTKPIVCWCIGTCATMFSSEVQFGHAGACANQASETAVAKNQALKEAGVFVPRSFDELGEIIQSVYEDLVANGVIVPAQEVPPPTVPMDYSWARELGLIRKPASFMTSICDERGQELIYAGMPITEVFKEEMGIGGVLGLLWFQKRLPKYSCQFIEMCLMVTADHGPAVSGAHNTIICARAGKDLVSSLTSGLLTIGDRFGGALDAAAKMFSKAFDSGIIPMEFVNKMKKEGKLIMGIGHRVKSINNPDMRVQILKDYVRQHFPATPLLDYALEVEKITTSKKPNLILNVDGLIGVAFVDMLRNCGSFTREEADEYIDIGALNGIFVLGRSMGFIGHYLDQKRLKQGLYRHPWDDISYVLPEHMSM

[2] = biological target: Tyrosine-protein phosphatase non-receptor type 6 (Homo sapiens, UniProt P29350); assay: Inhibition of SHP1 (unknown origin)
Tyrosine-protein phosphatase non-receptor type 6, sequence (P29350 whole entry): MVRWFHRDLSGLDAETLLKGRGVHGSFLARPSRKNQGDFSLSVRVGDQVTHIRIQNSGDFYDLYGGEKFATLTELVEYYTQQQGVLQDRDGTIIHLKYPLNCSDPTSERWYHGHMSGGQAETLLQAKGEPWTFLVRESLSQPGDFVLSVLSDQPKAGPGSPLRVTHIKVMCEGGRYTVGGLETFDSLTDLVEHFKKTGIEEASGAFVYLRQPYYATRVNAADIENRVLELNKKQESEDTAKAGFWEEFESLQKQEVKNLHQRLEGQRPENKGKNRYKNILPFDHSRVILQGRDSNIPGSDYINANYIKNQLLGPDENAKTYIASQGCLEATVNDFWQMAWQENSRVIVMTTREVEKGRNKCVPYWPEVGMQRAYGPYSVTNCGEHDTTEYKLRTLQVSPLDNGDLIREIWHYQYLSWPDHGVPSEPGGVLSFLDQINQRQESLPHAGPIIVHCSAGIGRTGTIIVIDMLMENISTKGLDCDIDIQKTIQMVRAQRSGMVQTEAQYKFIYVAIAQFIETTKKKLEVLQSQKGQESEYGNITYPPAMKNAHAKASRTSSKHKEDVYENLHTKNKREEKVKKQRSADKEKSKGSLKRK

[3] = biological target: T3, Tyrosine-protein phosphatase non-receptor type 11 (Homo sapiens) (UniProt Q06124); assay: Inhibition of SHP2 (unknown origin)
T3 sequence (whole entry): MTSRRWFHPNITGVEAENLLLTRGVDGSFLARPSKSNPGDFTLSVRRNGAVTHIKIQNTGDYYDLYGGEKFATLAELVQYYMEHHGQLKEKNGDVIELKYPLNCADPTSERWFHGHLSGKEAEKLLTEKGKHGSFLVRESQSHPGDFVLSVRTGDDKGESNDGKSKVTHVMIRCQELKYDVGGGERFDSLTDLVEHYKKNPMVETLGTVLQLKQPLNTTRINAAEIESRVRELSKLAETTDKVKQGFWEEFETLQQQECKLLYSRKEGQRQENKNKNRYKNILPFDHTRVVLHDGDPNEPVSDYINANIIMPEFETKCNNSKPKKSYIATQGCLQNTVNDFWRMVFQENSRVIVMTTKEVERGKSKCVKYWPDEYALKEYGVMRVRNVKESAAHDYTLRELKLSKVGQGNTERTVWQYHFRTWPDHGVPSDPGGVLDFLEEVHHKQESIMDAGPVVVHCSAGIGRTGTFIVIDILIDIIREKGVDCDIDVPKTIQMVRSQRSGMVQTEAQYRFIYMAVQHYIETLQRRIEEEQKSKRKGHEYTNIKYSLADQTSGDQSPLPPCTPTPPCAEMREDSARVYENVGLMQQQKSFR

[4] = biological target: Tyrosine-protein kinase JAK2 (Homo sapiens) (UniProt O60674); assay: Inhibition of JAK2 (unknown origin)
Tyrosine-protein kinase JAK2 (Homo sapiens), sequence (O60674 whole entry): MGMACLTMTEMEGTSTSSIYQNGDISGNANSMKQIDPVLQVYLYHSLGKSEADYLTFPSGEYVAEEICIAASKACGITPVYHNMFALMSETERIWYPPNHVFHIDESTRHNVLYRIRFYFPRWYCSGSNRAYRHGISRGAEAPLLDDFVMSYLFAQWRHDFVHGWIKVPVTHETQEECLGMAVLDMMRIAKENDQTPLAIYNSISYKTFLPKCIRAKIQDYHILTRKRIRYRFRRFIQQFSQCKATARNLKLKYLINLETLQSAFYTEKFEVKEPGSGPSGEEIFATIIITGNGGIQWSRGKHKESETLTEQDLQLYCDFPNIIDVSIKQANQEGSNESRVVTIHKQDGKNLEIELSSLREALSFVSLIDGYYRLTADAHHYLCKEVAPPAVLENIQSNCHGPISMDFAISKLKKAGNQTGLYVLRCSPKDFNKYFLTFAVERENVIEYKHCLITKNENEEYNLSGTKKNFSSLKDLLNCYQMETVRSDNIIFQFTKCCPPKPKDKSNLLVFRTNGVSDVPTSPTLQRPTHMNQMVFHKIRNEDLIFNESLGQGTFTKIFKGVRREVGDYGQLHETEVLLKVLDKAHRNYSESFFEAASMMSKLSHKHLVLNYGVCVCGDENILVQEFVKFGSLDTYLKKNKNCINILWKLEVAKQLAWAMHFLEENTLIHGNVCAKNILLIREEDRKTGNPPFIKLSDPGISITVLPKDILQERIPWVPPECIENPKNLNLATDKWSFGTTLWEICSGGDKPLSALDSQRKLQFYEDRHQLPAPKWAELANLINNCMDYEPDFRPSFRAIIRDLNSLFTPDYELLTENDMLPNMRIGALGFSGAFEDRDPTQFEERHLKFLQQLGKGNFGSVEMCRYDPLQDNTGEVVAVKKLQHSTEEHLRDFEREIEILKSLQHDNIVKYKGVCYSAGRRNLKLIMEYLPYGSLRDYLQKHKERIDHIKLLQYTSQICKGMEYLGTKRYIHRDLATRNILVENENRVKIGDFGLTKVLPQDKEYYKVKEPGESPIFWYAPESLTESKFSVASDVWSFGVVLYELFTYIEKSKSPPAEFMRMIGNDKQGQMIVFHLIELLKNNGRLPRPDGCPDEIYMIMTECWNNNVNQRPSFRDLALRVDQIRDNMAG

[5] = biological target: Acetyl-CoA carboxylase 1 (Homo sapiens) (UniProt Q13085); assay: Inhibition of ACC1 (unknown origin)
A-375 = assay: Cytotoxicity against human A375 cells assessed as reduction in cell viability at 32 uM incubated for 72 hrs by CCK8 assay; assay type: cell-based; conditions: a-375, 72 h
HEK293 = assay: Cytotoxicity against human HEK293 cells assessed as reduction in cell viability at 32 uM incubated for 72 hrs by CCK8 assay; assay type: cell-based; conditions: hek293, 72 h

pIC50 [1]	pIC50 (ATP-citrate synthase)	pIC50 [2]	inhibition [3]	inhibition [4]	inhibition [5]	SMILES	Activity (A-375)	Activity (HEK293)
4.57 to 5.55	4.57 to 5.55	4.57 to 5.55	inactive	inactive	inactive	CC1=CCC[C@H]2[C@](C)(Cc3cc(O)cc4[nH]c(=O)oc34)[C@@H](C)CC[C@]12C	Non-Toxic	Non-Toxic
4.57 to 5.55	4.57 to 5.55	4.57 to 5.55	inactive	inactive	inactive	CC1=CCC[C@H]2[C@](C)(Cc3cc(O)cc4nc5n(c34)CCC5)[C@@H](C)CC[C@]12C	Non-Toxic	–
–	–	–	inactive	inactive	inactive	C=C1CCC[C@H]2[C@](C)(Cc3cc(O)cc4nc(C)oc34)[C@@H](C)CC[C@]12C	Non-Toxic	Non-Toxic
–	–	–	inactive	inactive	inactive	CC(=O)Nc1ccc(O)c(C[C@]2(C)[C@@H](C)CC[C@]3(C)C(C)=CCC[C@@H]23)c1	Non-Toxic	Non-Toxic
–	–	–	inactive	inactive	inactive	CC1=CCC[C@H]2[C@](C)(Cc3cc(NC(=O)CC(C)C)ccc3O)[C@@H](C)CC[C@]12C	Non-Toxic	–
–	–	–	inactive	inactive	inactive	CC1=CCC[C@H]2[C@](C)(Cc3cc(N4CCCC4=O)ccc3O)[C@@H](C)CC[C@]12C	Non-Toxic	Non-Toxic
–	–	–	inactive	inactive	inactive	CC1=CCC[C@H]2[C@](C)(Cc3cc(-n4cccc4C=O)ccc3O)[C@@H](C)CC[C@]12C	Non-Toxic	Non-Toxic
–	–	–	inactive	inactive	inactive	CC1=CCC[C@H]2[C@](C)(Cc3cc(O)cc4nc(C)oc34)[C@@H](C)CC[C@]12C	Non-Toxic	Non-Toxic
4.57 to 5.55	4.57 to 5.55	4.57 to 5.55	inactive	inactive	inactive	CC1=CCC[C@H]2[C@](C)(Cc3cc(O)cc4ncoc34)[C@@H](C)CC[C@]12C	Non-Toxic	Non-Toxic
4.57 to 5.55	4.57 to 5.55	4.57 to 5.55	inactive	inactive	inactive	C=C1CCC[C@H]2[C@](C)(Cc3cc(O)cc4nc5n(c34)CCC5)[C@@H](C)CC[C@]12C	Non-Toxic	–
–	–	–	inactive	inactive	inactive	CC1=CCC[C@H]2[C@](C)(Cc3cc(O)cc4c3oc(=O)n4C)[C@@H](C)CC[C@]12C	Non-Toxic	Non-Toxic
